pIC50: −log10 of the molar value.
Legend:
[1] = test system: isolated mouse pancreatic islets; format: cell-based
Method: Experiments were conducted as previously described. Islets were incubated in 0.3 ml EC1 or EC2 media (ESM Table 2) supplemented with glucose and other reagents as indicated.
(§1) All data are reported, unless otherwise stated, as mean values ± SEM for the indicated number of experiments using islets from multiple mice. For hormone release studies, islets were isolated and pooled from 4–16 mice. These islets were then subdivided into groups of 12–20 size-matched islets. Each unique set of islets counted as an experiment with the experiments repeated on 2–4 days. Similarly, each unique group of human islets was treated as an experiment. […] In the Ca^2+ imaging and granule docking experiment, each cell represents an experiment making sure that cells from multiple donors/animals were used. For the in vivo experiments and the perfused pancreas, each mouse count represents an experiment. For two groupings, a t test was conducted. For multiple comparisons, one-way ANOVA was conducted. All statistical tests were performed using Graphpad Prism (version 9.1.0; graphpad.com).

[2] = test system: mouse alpha cells; test: TIRF imaging of docked secretory granules in mouse alpha cells; format: cell-based
Method: Cells were imaged using total internal reflection fluorescence (TIRF) microscopy (AxioObserver Z1 with a ×100/1.45 objective [Carl Zeiss] and a diode-pumped solid state laser at 491 nm). For these measurements, EC1 was used (ESM Table 2). Images from cells infected with preproglucagon promoter (PPPG)-neuropeptide Y (NPY)-enhanced green fluorescent protein (EGFP) virus were recorded using an electron-multiplying charge-coupled device camera (Photometrics Evolve) using ZEN blue. Single images of cells were acquired to measure the number of docked granules. Incoming and outgoing granules during visiting, docking and undocking were determined from multiple frame movies as described previously. Candidate docking or undocking events were found manually as granules that approached the TIRF field with an axial component and became laterally confined for at least two frames. We defined docking as granules that remained confined for at least 1 min. Visitors were those granules that remained for <1 min after appearing at the plasma membrane. Undocking was defined as slow movement of a previously docked granule away from its docking site. Granule density was calculated using a script that used the built-in ‘find maxima’ function in ImageJ (version 1.53c; http://rsbweb.nih.gov/ij) for spot detection.

[3] = test system: isolated mouse pancreatic islets; test: Somatostatin secretion in isolated mouse islets (RIA); format: cell-based; settings: 1 mmol/l glucose, groups of 20 islets
Method: (§2) Mouse islets were used acutely, except for studies with PTX, wherein islets were treated overnight with the toxin. Human islets were maintained in culture for up to 48 h in RPMI medium containing 10% (vol./vol.) FCS, 1% (vol./vol.) penicillin/streptomycin and 5 mmol/l glucose. Experiments were conducted as previously described. Islets were incubated in 0.3 ml EC1 or EC2 media (ESM Table 2) supplemented with glucose and other reagents as indicated. Glucagon was determined by ELISA (Mercodia).
(§3) Insulin and somatostatin were determined by RIA (Millipore and Diasource ImmunoAssays, respectively) as described previously. In these experiments, rates of release are expressed as % of contents unless otherwise indicated.

[4] = test system: PKA activity in alpha cells; test: PKA activity measurements (AKAR3) in alpha cells in intact islets; format: cell-based, mouse
Method: PKA activity was measured using AKAR3 as previously described. The cells were continuously superfused at a rate of 60 μl/min with EC4 (ESM Table 2).

[5] = test system: human pancreatic islets; test: Glucagon secretion in human islets (ELISA); format: cell-based; settings: human islets, 10 pmol/l, 1 mmol/l glucose
Method: Human pancreatic islets were isolated (with ethical approval and clinical consent) as previously described. Islets from the pancreases of 18 healthy donors and five donors with type 2 diabetes were used (see electronic supplementary material [ESM] Table 1; ESM Human islets checklist).
as §2
as §1, with “graphpad.com). It was ascertained that the data were normally distributed.” for “graphpad.com).”

[6] = test system: isolated mouse pancreatic islets; test: Insulin secretion in isolated mouse islets (RIA); format: cell-based
Method: Mouse islets were used acutely, except for studies with PTX, wherein islets were treated overnight with the toxin. Human islets were maintained in culture for up to 48 h in RPMI medium containing 10% (vol./vol.) FCS, 1% (vol./vol.) penicillin/streptomycin and 5 mmol/l glucose. Experiments were conducted as previously described. Islets were incubated in 0.3 ml EC1 or EC2 media (ESM Table 2) supplemented with glucose and other reagents as indicated.
as §3

[7] = test system: P/Q-type Ca^2+ channels; test: [Ca2+]i imaging of depolarisation-evoked Ca2+ entry in alpha cells (Gcg-GCaMP6f islets); format: cell-based, mouse; settings: in the presence of GLP-1(9–36) 10 pmol/l; p=0.26
Method: For live-cell cytoplasmic free Ca^2+ concentration ([Ca^2+]i) imaging experiments, Gcg-GCaMP6f islets were immobilised to a poly-L-lysine-coated coverslip fixed in a custom-built imaging chamber filled with EC3 (ESM Table 2). [Ca^2+]i was measured in islets from mice expressing GCaMP6f in alpha cells. [Ca^2+]i imaging experiments were then performed using an inverted LSM 510 confocal microscope (Zeiss) controlled with ZEN Black (Zeiss), using a ×40/1.3 oil immersion objective. Time-lapse images were collected every 0.98 s with a frame size of 256×256 pixels, with the bath solution (EC3) perfused at a rate of 0.4 ml/min and heated to 37°C. GCaMP6f was excited by an argon laser (488 nm) and emission was collected at 510 nm.
[Ca^2+]i imaging videos were analysed using the Fiji imaging processing package. The mean fluorescence (F) of each region of interest was normalised to baseline signal (F0) and expressed as F/F0 before exporting into ClampFit (version 10.7; Molecular Devices, CA, USA), where baseline was corrected and AUC was calculated.

Which “stimulation of glucagon secretion” value ([1]; mouse islets, 1 mmol/l glucose) does the source give for `CC(C)NCC(O)c1ccc(O)c(O)c1` (stereo not drawn) [isoprenaline] here?
Its value is > 2.2 fold.

For `CC1=NS(=O)(=O)c2cc(Cl)ccc2N1` [diazoxide], which “reduction of submembrane granule density” value ([2]; 200 μmol/l) is on record?
Its value is ~ 40%.

With `CC[C@H](C)[C@H](NC(=O)[C@H](Cc1ccccc1)NC(=O)[C@H](CCC(=O)O)NC(=O)[C@H](CCCCN)NC(=O)[C@H](C)NC(=O)[C@H](C)NC(=O)[C@H](CCC(N)=O)NC(=O)CNC(=O)[C@H](CCC(=O)O)NC(=O)[C@H](CC(C)C)NC(=O)[C@H](Cc1ccc(O)cc1)NC(=O)[C@H](CO)NC(=O)[C@H](CO)NC(=O)[C@@H](NC(=O)[C@H](CC(=O)O)NC(=O)[C@H](CO)NC(=O)[C@@H](NC(=O)[C@H](Cc1ccccc1)NC(=O)[C@@H](NC(=O)CNC(=O)[C@H](CCC(=O)O)NC(=O)[C@H](C)NC(=O)[C@@H](N)Cc1c[nH]cn1)[C@@H](C)O)[C@@H](C)O)C(C)C)C(=O)N[C@@H](C)C(=O)N[C@@H](Cc1c[nH]c2ccccc12)C(=O)N[C@@H](CC(C)C)C(=O)N[C@H](C(=O)N[C@@H](CCCCN)C(=O)NCC(=O)N[C@@H](CCCNC(=N)N)C(N)=O)C(C)C` [GLP-1(7–36)] as the molecule, how does the “inhibitory effect on glucagon secretion in Glp1r−/− mouse islets” value ([1]; 10 pmol/l, Glp1r−/− islets, 1 mmol/l glucose) read?
The value was “persisted”.

What about the “inhibitory effect on glucagon secretion in Glp1r−/− islets after PTX” value ([1]; 10 pmol/l, Glp1r−/− islets, PTX pretreatment) of the same molecule?
The value was “abolished”.

And the “change of the inhibitory effect on glucagon secretion by exendin(9–39)” value ([1]; 10 pmol/l, exendin(9–39) 1 μmol/l)?
The value was “reduced”.

What about the “glucagonostatic effect in the presence of exendin(9–39)” value ([1]; 10 pmol/l, exendin(9–39) 1 μmol/l, 1 mmol/l glucose) of the same molecule?
Its value is “retained their glucagonostatic effect”.

What about the “glucagonostatic effect in the presence of the PKA inhibitor 8-Br-Rp-cAMPS” value ([1]; 8-Br-Rp-cAMPS 10 μmol/l, 1 mmol/l glucose) of the same molecule?
Its value is “not affected”.

And the “glucagonostatic effect remaining with exendin(9–39), in the presence of sitagliptin” value ([1]; exendin(9–39) plus DPP-4 inhibitor sitagliptin)?
The value was “abolished”.

What about the “inhibition of glucagon secretion” value ([1]; islets cultured overnight without PTX, 1 mmol/l glucose) of the same molecule?
The value was ~ 50%.

What about the “inhibitory effect on glucagon secretion after PTX pretreatment” value ([1]; overnight PTX 100 ng/ml, 1 mmol/l glucose) of the same molecule?
Its value is “unaffected”.

And the pIC50 ([1]; read-out: half-maximal inhibitory concentration (IC50) for inhibition of glucagon secretion, isolated mouse islets, 1 mmol/l glucose, groups of 12 islets from 4–6 mice, glucagon ELISA)?
Its pIC50 is 11.60.

And the “concentration at which stimulation of somatostatin secretion was already detectable” value [3]?
Its value is 10 pmol/L.

What about the “effect on PKA activity in alpha cells” value ([4]; 10 pmol/l) of the same molecule?
Its value is “no inhibitory effect”.

What about the “effect on cAMP/PKA activity in alpha cells” value ([4]; 10,000 pmol/l) of the same molecule?
Its value is “increased cAMP/PKA activity”.

What about the “inhibition of glucagon secretion” value [5] of the same molecule?
The value was ~ 50%.

And the “insulinotropic effect in Glp1r−/− mouse islets” value ([6]; Glp1r−/− islets)?
The value was “lost”.

What about the “concentrations at which stimulation of insulin secretion attained statistical significance” value ([6]; mouse islets, 1 mmol/l glucose) of the same molecule?
Its value is ≥ 100 pmol/L.

How did the “further change of Ca2+ entry on addition in the presence of GLP-1(9–36)” value [7] turn out when ω-agatoxin was run?
Its value is −8±4%.

And the “effect on glucagon secretion” value ([1]; 200 nmol/l, 1 mmol/l glucose)?
Its value is “inhibited glucagon secretion nearly as strongly as GLP-1(9–36)”.

What about the “reduction of the number of docked granules” value ([2]; 200 nmol/l) of the same molecule?
The value was “to the same extent as GLP-1(9–36)”.

Which “effect on the glucagonostatic effect of GLP-1(9–36)” value ([1]; mouse islets, L-168049 100 nmol/l, GLP-1(9–36) 10 pmol/l) does the source give for `CCCOc1ccc(Br)cc1-c1cc(-c2ccc(Cl)cc2)[nH]c1-c1ccncc1` [L-168049] here?
Its value is “abolished”.

Reference: article PMC10844371 (Diabetologia, 2023)
